Test results as given in patent US20230241124A1, “ISOTONIC LIPID EMULSION” (priority 2020, published 2023).
Where a name gives a salt, the structure may show the parent alone.

Tested on: cardiac ischemia
Test: dosage study in the monkey model of cardiac ischemia
Assay type: in vivo
Procedure: This was done in groups of n=8 animals. […] The control groups consisted of sham operated animals undergoing no ischemia, and 2 groups undergoing cardiac ischemia: a saline control (n=8), and a “positive control” group (n=8) treated with Metoprolol tartrate (3 mg/kg), as usually applied to MI patients.

[1] = day 7, positive control 3 mg/kg

COCCc1ccc(OCC(O)CNC(C)C)cc1 (stereo not shown) [Metoprolol tartrate]
NT Pro BNP concentration [1]: 45.7 ± 15.4 pg/mL
ratio of infarcted heart area [1]: 5.80+/−1.83%
index of myocardial contractility (−dp/dt) (positive control 3 mg/kg): remained unchanged
reduction of infarcted area versus saline control (positive control 3 mg/kg): 55%
